Results as given in publication PMC11878344 (Angewandte Chemie (International Ed. in English), 2025).
Where two headings read alike, the source gives them in different places.

Key:
[1] = biological target: T1, NanoLuc luciferase MAGL fusion protein in HEK293A cells (Homo sapiens, UniProt Q99685); test: Cellular MAGL NanoBRET target engagement assay; format: cell-based; details: Table 2; mean of three independent measurements ± SD; read-out: HEK 293 nanoBRET IC50±SD
T1 construct: expressed in transfected cells
T1 sequence (Q99685 1-303): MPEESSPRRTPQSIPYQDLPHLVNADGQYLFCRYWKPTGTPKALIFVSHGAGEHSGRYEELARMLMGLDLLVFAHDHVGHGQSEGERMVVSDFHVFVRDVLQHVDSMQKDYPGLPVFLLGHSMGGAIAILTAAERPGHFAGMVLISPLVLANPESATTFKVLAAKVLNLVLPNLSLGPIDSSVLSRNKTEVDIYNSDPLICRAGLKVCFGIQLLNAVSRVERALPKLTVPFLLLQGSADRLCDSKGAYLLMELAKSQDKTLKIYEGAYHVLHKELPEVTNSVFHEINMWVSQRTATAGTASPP
Description: We, therefore, confirmed cellular MAGL target engagement in a nanoBRET assay using live HEK293 cells.[39] […] To overcome the low cellular potency of 4, we exploited the modular construction principle to modulate unfavorable physicochemical properties and investigated less polar, privileged head groups[23, 33, 40] (Supporting Information Table S4). […]
This assay was performed as first described before.[39]
Compounds were profiled by a novel cellular MAGL NanoBRET™ Target Engagement assay, which measures the apparent affinity of test compounds by competitive displacement of a Roche-developed Tracer (WO2021058443, Example 21)[21], reversibly bound to a NanoLuc® luciferase MAGL fusion protein in cells.
A HEK293A stable cell line expressing NanoLuc_MAGL was established at Roche and assigned as HEK293A_NanoLuc_MAGL clone #43. A fixed concentration of tracer is added to cells expressing the NanoLuc®_MAGL fusion protein to generate a BRET reporter complex. The introduction of competing compounds results in a dose-dependent decrease in NanoBRET™ energy transfer, which allows quantification of the intracellular affinity of the target protein for the […]
HEK293A_NanoLuc_MAGL clone #43 cells were cultured in DMEM (Gibco 31966) with 10% FBS and 800 ug/ml G418. The NanoBRET assay was performed by seeding 5000 cells/well in Costar low-volume white 384-well plate in assay buffer (1% FBS in HBSS), followed by adding 50 nM final concentration of tracer and serial dilutions of test compounds. After 2 hours of incubation, Nanoluciferase substrates and extracellular inhibitors were added following the manufacturer's protocol (Promega, #N2520), and the NanoBRET signaling were quantified with the Paradigm

[2] = Fluorescence excitation/absorption and emission maxima; format: physicochemical; details: PBS pH 7.4
Description: Figure S8. Fluorescence excitation and emission spectra of the utilized fluorescent reporters in PBS pH 7.4. Spectra l differences between probes carrying the same fluorophore were […]
Table S6. Fluorescence excitation, emission maxima, and Stokes-shift in PBS pH 7.4 for the used fluorophores, respectively. difference s between probes with the same fluorophore were […]
λmax Excitation [nm] λmax Emission [nm] Stokes-shift [nm]
(1 picture or pasted object on this page, not shown here)

[3] = biological target: T2, human MAGL (Homo sapiens, UniProt Q99685); test: In vitro MAGL inhibition assay (2-AG hydrolysis followed by mass spectrometry); format: biochemical
T2 sequence (Q99685 1-303): T1 sequence (Q99685 1-303)
Description: (§1) 4. Experimental Details of Biochemical Assays and Crystal Structure
(§2) In Vitro MAGL Inhibition Assay
(§3) Compounds were profiled for MAGL inhibitory activity by determining the enzymatic activity by following the hydrolysis of the natural substrate 2-arachidonoylglycerol (2-AG), resulting in arachidonic acid, which can be followed by mass spectrometry. The 2-AG assay was carried out in 384 well assay plates (PP, Greiner Cat# 784201) in a total volume of 20 µL. Compound dilutions were made in 100% DMSO (VWR Chemicals 23500.297) in a polypropylene plate in 3-fold dilution steps to give a final concentration range in the assay from 12.5 µM to 0.8 pM. 0.25µL compound dilutions (100% DMSO) were added to 9 µL MAGL in assay buffer (50 mM TRIS (GIBCO, 15567-027), 1 mM EDTA (Fluka, 03690-100 mL), 0.01% (v/v) Tween. After shaking, the plate was incubated for 15 min at RT. To start the reaction, 10 µL 2-arachidonoylglycerol in assay buffer was added. The final concentrations in the assay were 50 pM MAGL and 8 µM 2-arachidonoylglyerol. After shaking and 30 min incubation at RT, the reaction was quenched by the addition of 40µL of ACN containing 4 µM of d8-arachidonic acid. The amount of arachidonic acid was traced by an online SPE system (Agilent Rapidfire) coupled to a triple quadrupole mass spectrometer (Agilent 6460). A C18 SPE cartridge (G9205A) was used in an ACN/water liquid setup. The mass spectrometer was operated in negative electrospray mode following the mass transitions 303.1 → 259.1 for arachidonic acid and 311.1 → 267.0 for d8-arachidonic acid. The activity of the compounds was calculated based on the ratio of intensities [arachidonic acid / d8- […]
(§4) This assay was performed as first described before.[39] […]

[4] = biological target: T3, mouse MAGL (Mus musculus, UniProt O35678); test: as above; format: biochemical
T3 sequence (O35678 1-303): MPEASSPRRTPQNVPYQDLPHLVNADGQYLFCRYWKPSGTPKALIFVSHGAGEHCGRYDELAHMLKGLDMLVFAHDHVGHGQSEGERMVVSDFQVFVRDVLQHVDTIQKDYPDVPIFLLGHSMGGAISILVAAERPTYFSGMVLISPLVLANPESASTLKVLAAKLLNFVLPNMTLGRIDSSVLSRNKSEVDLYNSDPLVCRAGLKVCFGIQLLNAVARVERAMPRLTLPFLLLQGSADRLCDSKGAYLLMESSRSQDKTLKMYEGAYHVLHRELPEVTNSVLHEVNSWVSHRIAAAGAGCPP
Description: as §1, §2, §3, §4

[5] = Table 2, mean of three independent measurements ± SD, read-out: hMAGL IC50±SD
[6] = Table 2, mean of three independent measurements ± SD, read-out: mMAGL IC50±SD

CN(C)c1ccc2c(c1)[Si](C)(C)c1cc(N(C)C)ccc1C21OC(=O)c2ccc(C(=O)NCCCCCOc3ccccc3CC3CC4(C3)CN(C(=O)OC(C(F)(F)F)C(F)(F)F)C4)cc21 (stereo not drawn) [Compound 12]
IC50 [1]: > 1000 nM
λmax Em (fluorescence emission maximum) [2]: 673 nm
λmax Ex (fluorescence excitation maximum) [2]: 654 nm
IC50 [3, 5]: 1.15 ± 0.29 nM
IC50 [4, 6]: 1.35 ± 0.3 nM

CN(C)c1ccc2c(c1)[Si](C)(C)c1cc(N(C)C)ccc1C21OC(=O)c2ccc(C(=O)NCCCCCOc3ccccc3CC3CC4(C3)CN(C(=O)N3CC5(COC(=O)N5)C3)C4)cc21 (stereo not drawn) [Compound 10]
IC50 [1]: 285 ± 240 nM
λmax Em (fluorescence emission maximum) [2]: 673 nm
λmax Ex (fluorescence excitation maximum) [2]: 654 nm
IC50 ([3]; Supporting Information Tables S1-S5, read-out: IC50 hMAGL): 0.187 nM
IC50 [3, 5]: 0.15 ± 0.11 nM
IC50 ([4]; Supporting Information Tables S1-S5, read-out: IC50 mMAGL): 0.155 nM
IC50 [4, 6]: 0.16 ± 0.09 nM
